ChEMBL document CHEMBL6120987, “Identification of inhibitors targeting the FLT3-ITD mutation through 4D-QSAR, in vitro, and in silico” (Eur J Med Chem, 2025)

Key:
[1] = target: T1, Receptor-type tyrosine-protein kinase FLT3 (Homo sapiens, UniProt P36888, ITD); test: Inhibition of FLT3-ITD mutant (unknown origin)
MOLM-13 = test: Antiproliferative activity against FLT3-dependent human MOLM-13 cells expressing FLT3 ITD mutant assessed as reduction in cell viability incubated for 72 hrs by luminescence based assay; format: functional; conditions: MOLM-13, 72 h
[2] = target: T1, Receptor-type tyrosine-protein kinase FLT3; test: Inhibition of FLT3-ITD mutant (unknown origin) using biotin-tagged TK substrate preincubated for 10 mins followed by substrate and ATP addition and measured after 40 mins by ADP-Glo Kinase Assay

T1 sequence (P36888 whole entry, looked up, stated change not applied): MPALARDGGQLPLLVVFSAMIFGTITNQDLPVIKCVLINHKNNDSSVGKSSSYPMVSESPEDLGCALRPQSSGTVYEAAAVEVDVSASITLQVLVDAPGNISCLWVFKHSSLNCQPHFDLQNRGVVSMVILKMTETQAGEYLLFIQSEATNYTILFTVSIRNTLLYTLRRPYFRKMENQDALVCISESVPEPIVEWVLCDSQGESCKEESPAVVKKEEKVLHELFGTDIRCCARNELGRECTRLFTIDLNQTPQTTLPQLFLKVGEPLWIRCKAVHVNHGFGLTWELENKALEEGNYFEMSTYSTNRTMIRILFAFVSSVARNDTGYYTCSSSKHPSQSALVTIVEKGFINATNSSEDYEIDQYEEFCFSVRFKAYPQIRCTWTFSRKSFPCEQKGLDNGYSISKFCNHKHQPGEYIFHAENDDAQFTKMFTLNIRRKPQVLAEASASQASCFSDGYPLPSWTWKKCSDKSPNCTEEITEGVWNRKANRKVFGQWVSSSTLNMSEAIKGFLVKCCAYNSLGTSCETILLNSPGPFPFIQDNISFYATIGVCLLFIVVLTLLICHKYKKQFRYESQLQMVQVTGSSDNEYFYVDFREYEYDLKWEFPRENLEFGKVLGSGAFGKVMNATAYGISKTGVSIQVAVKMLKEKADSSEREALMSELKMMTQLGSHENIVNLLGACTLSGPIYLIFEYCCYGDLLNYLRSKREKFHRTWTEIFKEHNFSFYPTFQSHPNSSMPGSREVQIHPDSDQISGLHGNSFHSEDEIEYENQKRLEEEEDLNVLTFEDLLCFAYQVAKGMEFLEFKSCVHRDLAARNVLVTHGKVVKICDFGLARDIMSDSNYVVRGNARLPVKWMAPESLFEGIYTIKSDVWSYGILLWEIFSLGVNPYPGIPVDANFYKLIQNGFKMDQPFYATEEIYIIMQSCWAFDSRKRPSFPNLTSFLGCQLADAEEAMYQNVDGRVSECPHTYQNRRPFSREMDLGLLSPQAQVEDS

SMILES | IC50 [1] [nM] | IC50 (MOLM-13) [nM] | IC50 [2] [nM]
CC(C)(C)OC(=O)N1CCNCC1 | 560 |  | 
CCCCCCCC/C=C\CCCCCCCC(=O)N1CCN(c2ccc(Nc3nc(NC4CCOCC4)c(CC)nc3C(N)=O)cc2OC)CC1 |  | 2440 | 
CCc1nc(C(N)=O)c(Nc2ccc(N3CCN(C(=O)C4c5ccccc5-c5ccccc54)CC3)c(OC)c2)nc1NC1CCOCC1 |  | 142 | 
CCc1nc(C(N)=O)c(Nc2ccc(N3CCN(C(=O)C45C6C7C4C4C5C6C74C(=O)OC)CC3)c(OC)c2)nc1NC1CCOCC1 (stereo not given) |  | 111 | 
CCc1nc(C(N)=O)c(Nc2ccc(N3CCC(N4CCN(C(=O)C56CC7CC(CC(C7)C5)C6)CC4)CC3)c(OC)c2)nc1NC1CCOCC1 |  | 188 | 
CCc1nc(C(N)=O)c(Nc2ccc(N3CCC(N4CCN(C(=O)C5c6ccccc6-c6ccccc65)CC4)CC3)c(OC)c2)nc1NC1CCOCC1 |  | 154 | 
CCc1nc(C(N)=O)c(Nc2ccc(N3CCC(N4CCN(C(=O)C56C7C8C5C5C6C7C85C(=O)OC)CC4)CC3)c(OC)c2)nc1NC1CCOCC1 (stereo not given) |  | 25.6 | 2.12
CCc1nc(C(N)=O)c(Nc2ccc(N3CCN(C(=O)C4CC5C=CC4C5)CC3)c(OC)c2)nc1NC1CCOCC1 (stereo not given) |  | 63.4 | 1.29
CCc1nc(C(N)=O)c(Nc2ccc(N3CCC(NC(=O)C4c5ccccc5-c5ccccc54)CC3)c(OC)c2)nc1NC1CCOCC1 |  | 147 | 
CCCCCCCC/C=C\CCCCCCCC(=O)NC1CCN(c2ccc(Nc3nc(NC4CCOCC4)c(CC)nc3C(N)=O)cc2OC)CC1 |  | 745 | 
CCc1nc(C(N)=O)c(Nc2ccc(N3CCC(N4CCN(C(=O)C5CC6C=CC5C6)CC4)CC3)c(OC)c2)nc1NC1CCOCC1 (stereo not given) |  | 54.6 | 4.83

Results, then the compound that gave them:

IC50 [1] [nM] | IC50 (MOLM-13) [nM] | IC50 [2] [nM] | SMILES
511 |  |  | CCCCCCCC/C=C\CCCCCCCC(=O)O [OLEIC ACID]
 | 992 |  | CCc1nc(C(N)=O)c(Nc2ccc(N3CCC(NC(=O)C45CC6CC(CC(C6)C4)C5)CC3)c(OC)c2)nc1NC1CCOCC1
 | 22.4 |  | CCc1nc(C(N)=O)c(Nc2ccc(N3CCC(N4CCN(C)CC4)CC3)c(OC)c2)nc1NC1CCOCC1 [GILTERITINIB]
511 |  |  | COc1cc(N)ccc1N1CCC(N2CCN(C(=O)OC(C)(C)C)CC2)CC1
 | 87.4 | 6.1 | CCc1nc(C(N)=O)c(Nc2ccc(N3CCC(NC(=O)C45C6C7C4C4C5C6C74C(=O)OC)CC3)c(OC)c2)nc1NC1CCOCC1 (stereo not given)
370 |  |  | CCc1nc(C(N)=O)c(Nc2ccc(N3CCN(C(=O)OC(C)(C)C)CC3)c(OC)c2)nc1NC1CCOCC1
 | 55 | 3.06 | CCc1nc(C(N)=O)c(Nc2ccc(N3CCC(NC(=O)C4CC5C=CC4C5)CC3)c(OC)c2)nc1NC1CCOCC1 (stereo not given)
 | 1340 |  | CCc1nc(C(N)=O)c(Nc2ccc(N3CCN(C(=O)C45CC6CC(CC(C6)C4)C5)CC3)c(OC)c2)nc1NC1CCOCC1
 | > 10000 |  | CCCCCCCC/C=C\CCCCCCCC(=O)N1CCN(C2CCN(c3ccc(Nc4nc(NC5CCOCC5)c(CC)nc4C(N)=O)cc3OC)CC2)CC1
